In patent publication US20150110849A1, “ANTIMICROBIAL ACCESSORY FOR AN IMPLANTABLE MEDICAL DEVICE” (Medtronic, Inc., priority 2009, published 2015):
Where a name gives a salt, the structure may show the parent alone.

Assay: zone of inhibition (ZOI) of antimicrobial accessories
Type: cell-based
From the text: Examples 30-54 illustrate zone of inhibition (ZOI) data collected for antimicrobial accessories including minocycline HCl and/or rifampin. Various polymers and excipients were used in combination with minocycline HCl and/or rifampin. […] In Table 22, M stands for minocycline HCl, R stands for rifampin, SiO2 is silica, PVP is polyvinylpyrrolidone, BIO-PSA 7-4601 is a silicone PSA available from Dow Corning Corp, Midland, Mich., MDX4-4210 is a liquid silicone rubber available from Dow Corning, Corp., Midland, Mich., LSR Q7-4850 is a liquid silicone rubber available from Dow Corning, Corp., Midland, Mich., and MED-1137 a silicone adhesive available from NuSil Silicone Technology, Carpinteria, Calif.

| Structure (SMILES) | Average ZOI |
| --- | --- |
| CO[C@H]1/C=C/O[C@@]2(C)Oc3c(C)c(O)c4c(O)c(c(/C=N/N5CCN(C)CC5)c(O)c4c3C2=O)NC(=O)/C(C)=C\C=C\[C@H](C)[C@H](O)[C@@H](C)[C@@H](O)[C@@H](C)[C@H](OC(C)=O)[C@@H]1C [Example 31, rifampin] | 17 mm |
| CN(C)c1ccc(O)c2c1C[C@H]1C[C@H]3[C@H](N(C)C)C(O)=C(C(N)=O)C(=O)[C@@]3(O)C(O)=C1C2=O [Example 30, minocycline HCl] | 16 mm |
